Tests used:
[1] = biological target: T1, Transient receptor potential cation channel subfamily V member 6 (Homo sapiens, UniProt Q9H1D0); assay: Inhibition of TRPV6 (unknown origin) transfected in HEK293 cells assessed as reduction in TRPV6-induced Cd2+ influx
T1 sequence (Q9H1D0 whole entry): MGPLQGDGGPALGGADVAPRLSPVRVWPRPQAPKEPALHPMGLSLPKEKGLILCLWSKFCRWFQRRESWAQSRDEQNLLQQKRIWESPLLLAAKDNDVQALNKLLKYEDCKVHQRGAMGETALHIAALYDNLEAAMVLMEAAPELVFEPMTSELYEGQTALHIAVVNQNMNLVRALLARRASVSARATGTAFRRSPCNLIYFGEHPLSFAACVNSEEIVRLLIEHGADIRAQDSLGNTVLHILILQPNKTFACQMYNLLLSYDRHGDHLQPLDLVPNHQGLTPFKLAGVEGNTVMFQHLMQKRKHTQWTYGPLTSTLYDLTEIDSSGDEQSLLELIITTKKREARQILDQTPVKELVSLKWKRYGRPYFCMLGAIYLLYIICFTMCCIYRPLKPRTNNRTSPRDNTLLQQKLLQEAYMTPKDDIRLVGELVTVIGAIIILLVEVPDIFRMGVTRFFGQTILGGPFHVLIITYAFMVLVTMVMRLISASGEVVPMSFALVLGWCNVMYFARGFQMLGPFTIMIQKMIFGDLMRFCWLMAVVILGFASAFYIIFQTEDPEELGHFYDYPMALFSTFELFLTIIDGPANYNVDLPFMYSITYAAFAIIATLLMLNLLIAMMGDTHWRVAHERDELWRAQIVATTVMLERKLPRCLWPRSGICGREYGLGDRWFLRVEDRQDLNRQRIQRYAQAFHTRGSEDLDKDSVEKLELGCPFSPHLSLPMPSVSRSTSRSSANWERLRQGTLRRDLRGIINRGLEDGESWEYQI

LNCaP = assay: Antiproliferative activity against human LNCaP cells assessed as reduction in cell viability incubated for 72 hrs by XTT assay
T47D = assay: Antiproliferative activity against human T47D cells assessed as reduction in cell viability incubated for 72 hrs by XTT assay
[2] = biological target: T1, Transient receptor potential cation channel subfamily V member 6; assay: Inhibition of TRPV6 (unknown origin) expressed in Sf9 cells
[3] = biological target: T1, Transient receptor potential cation channel subfamily V member 6; assay: Inhibition of TRPV6 (unknown origin)

c1ccc(COc2ccccc2CNC23CC4CC(CC(C4)C2)C3)cc1 was tested, and the IC50 [1] was 21 µM.

c1ccc(C2CCC(N3CCN(Cc4ccco4)CC3)CC2)cc1 (configuration not stated) was tested, and the IC50 [1] was 25 µM.

With Fc1ccc(CCNCc2ccccc2OCc2ccc(F)cc2)cc1 the IC50 [1] was 15 µM.

CN(C)c1ccc(CCN2CCC[C@@H]2CO)cc1 showed an IC50 (LNCaP) of 1000 nM and an IC50 (T47D) of 49.1 µM.

Molecule COc1ccc(CCN2CCC[C@@H]2COC(c2ccccc2)c2ccc(Cl)cc2)cc1 (some centres not stated) has an IC50 (LNCaP) of 50000 nM and an IC50 (T47D) of 220 µM.

CCCc1cc(O)c2c(c1)OC(C)(C)[C@@H]1C=CC(C)=C[C@@H]21 gave an IC50 [2] of 9.4 µM.

With CN(C)c1ccc(CCN2CCC[C@@H]2COC(c2ccccc2)c2ccc(Cl)cc2)cc1 (some centres not stated) the IC50 (LNCaP) was 310 nM and the IC50 (T47D) was 44.5 µM.

COc1ccc(CCN2CCC[C@@H]2COC(c2ccccc2)c2ccccc2)cc1 was tested, and the IC50 (LNCaP) was 61000 nM and the IC50 (T47D) was 198 µM.

Work on COc1ccc(CCN2CCC[C@@H]2COCc2ccc(Cl)cc2)cc1 yielded an IC50 [3] of 440 nM, an IC50 (LNCaP) of 440 nM and an IC50 (T47D) of 38.8 µM.

In the case of COc1cc(Br)ccc1CN1CCN(C2CCC(c3ccccc3)CC2)CC1 (configuration not stated), the IC50 [1] is reported as 26 µM.

Work on c1ccc(Oc2cccc(CN3CCN(Cc4cccnc4)CC3)c2)cc1 yielded an IC50 [1] of 17 µM.

— ChEMBL document CHEMBL5500350, “Advances in TRPV6 inhibitors for tumors by targeted therapies: Macromolecular proteins, synthetic small molecule compounds, and natural compounds” (Eur J Med Chem, 2024)
